Experimental data reported in patent publication US20060008855A1, “Promiscuous G-protein compositions and their use” (Invitrogen Corporation, a Delaware corporation, priority 1996, published 2006).
“And” between values parts separate entries of the source, which are not always exact repeats. Identical values can stand only once.

What was measured:
RTEM β-lactamase [1] = molecular target: T1, RTEM β-lactamase (Escherichia coli, UniProt P62593); assay: Pixel intensities of CCF2 loaded CHO cells transiently transfected with RTEM β-lactamase gene; format: cell-based; set-up: expressed in transfected cells; host or cells: CHO, transiently transfected; conditions: for pixel intensity, coumarin emission filter: 450 DF 65 filter
Experimental: (§1) Cells from cell lines of various mammalian origin were transiently transfected with a plasmid containing the RTEM β-lactamase gene under the control of a mammalian promoter. […] D. 1.10 to 48 hours after transfection cells were exposed to 5 micromolar CCF2/ac2AM2 for 1 to 6 hours. […] To quantitate the fluorescence measurements the cells were first viewed through coumarin (450 DF 65) and then fluorescein (515 EFLP) emission filters and pictures were recorded with a charge couple device camera. The average pixel intensities of CCF2 loaded transfected cells (blue) and controls (green) at coumarin and fluorescein wavelength in COS-7 (Table 2) and CHO (Table 3) cells are summarized; values for 4 representative cells for each population are given.

β-lactamase = β-lactamase cleavage of CCF2 in phosphate buffer, emission spectrum; format: biochemical; conditions: 50 mmolar phosphate buffer pH 7.0, excitation 405 nm
Source text: The emission spectrum of compound CCF2 in 50 mmolar phosphate buffer pH 7.0 before and after β-lactamase cleavage of the β-lactam ring. In the intact substrate, efficient energy transfer occurs from the 7-hydroxycoumarin moiety to the fluorescein moiety. Excitation of the substrate at 405 nm results in fluorescence emission at 515 nm (green) from the acceptor dye fluorescein. The energy transfer is disrupted when β-lactamase cleaves the β-lactam ring, thereby severing the link between the two dyes. Excitation of the products at 405 nm now results entirely in donor fluorescence emission at 448 nm (blue). The fluorescence emission from the donor moiety increases 25 fold upon β-lactam cleavage. The fluorescence at 515 nm is reduced by 3.5-fold, all of the remaining fluorescence originating from the 7-hydroxycoumarin as its emission spectrum extends into the green. Twenty-five-fold quenching of the donor in the substrate is equivalent to an efficiency of fluorescence energy transfer of 96%. This large fluorescence change upon β-lactam cleavage can readily be used to detect β-lactamase in the cytoplasm of living mammalian cells.

RTEM β-lactamase [2] = molecular target: T1, RTEM β-lactamase; assay: Pixel intensities of CCF2 loaded COS-7 cells transiently transfected with RTEM β-lactamase gene; format: cell-based; set-up: expressed in transfected cells; host or cells: COS-7, transiently transfected; conditions: for pixel intensity, coumarin emission filter: 450 DF 65 filter
Experimental: as §1

NFAT promoter = NFAT promoter β-lactamase reporter gene assay in Jurkat T lymphocytes; format: cell-based
Source text: These examples employ Jurkat T lymphocytes that were transfected with a genetic construct that expresses a reporter gene. The genetic construct includes a NFAT promoter, which is responsive to increased calcium levels and protein kinase C activation that result from activation of Gα protein. The NFAT promoter was operably linked to a β-lactamase reporter gene. To detect expression of the reporter gene, and thereby detect activation of Gα, the cells were contacted with the β-lactamase substrate CCF2ac2/AM2 (described herein), and fluorescence emission was detected according to previously described methods (Tsien et al., 1993, Trends in Cell Biology 3:242-245).
Two different compounds, ionomycin and phorbol myristate acetate (PMA), were used to optimize detection of expression of the reporter gene in these examples. In the first example, the dose response to ionomycin was measured. In this example, a set of samples of cells were contacted with PMA (at 3 nM) and the calcium ionophore ionomycin (at various concentrations, ranging from 0 to 3.0 μM). […]
In practicing these methods, it is preferable to add the ionophore to a level that is just below the threshold level for activation of the calcium-responsive promoter (e.g., the NFAT promoter). […] As is illustrated in FIG. 4A, fluorescence emission from a sample of the aforementioned cells can be measured by FRET. In this example, fluorescence emission was measured approximately 90 minutes after stimulation. Because the fluorogenic β-lactamase substrate undergoes a shift in fluorescence emission, fluorescence emission is measured as an emission ratio (450/530) when exciting at 400 nm. […]
In a second example, the dose response of PMA required to stimulate NFAT-driven expression was measured. […] As above, fluorescence emission was measured 90 minutes after stimulation. […]

Gα15 or Gα16 expression = assay: Doxycyclin-inducible expression of Gα15 or Gα16 in COS-7 cells, Western blot; format: cell-based; conditions: COS-7 clones, tet operator/CMV promoter; doxycyclin 3 g/ml
Source text: The data summarized herein indicate that, although cells may not tolerate constitutive expression of promiscuous Gα proteins at high levels, they can tolerate expression of promiscuous Gα proteins from an inducible promoter. In this case, the genes for Gα15 and Gα16 were placed under the control of a cytomegalovirus (CMV) promoter that was operably linked to a heptamerized tet operator (Gossen and Bujard, 1992, Proc. Natl. Acad. Sci. 89:5547-5551). The plasmid encoding Gα and; the plasmid encoding Gα16 are identical, except sequences encoding Gα16 in lieu of Gα15. These plasmids were used to transfect COS-7 cells. These cells were co-transfected with a tetracyclin-dependent transactivator, rtTA, that is operably linked to a CMV promoter of a plasmid that carries a neomycin resistance gene (Gossen et al., 1995, Science 268:1766-1769).
Expression of the Gα genes was induced by contacting the cells with doxycyclin, a tetracyclin analog. In these experiments, the doxycyclin concentration was […], although doxycyclin concentrations ranging from […] can be used in order to regulate the level of gene expression. […] FIG. 3 illustrates that, in the presence of doxycyclin, expression of Gα15 or Gα16 is detectable as a band of approximately 43 kDa. […]

T1 sequence (P62593 24-286 limits assumed): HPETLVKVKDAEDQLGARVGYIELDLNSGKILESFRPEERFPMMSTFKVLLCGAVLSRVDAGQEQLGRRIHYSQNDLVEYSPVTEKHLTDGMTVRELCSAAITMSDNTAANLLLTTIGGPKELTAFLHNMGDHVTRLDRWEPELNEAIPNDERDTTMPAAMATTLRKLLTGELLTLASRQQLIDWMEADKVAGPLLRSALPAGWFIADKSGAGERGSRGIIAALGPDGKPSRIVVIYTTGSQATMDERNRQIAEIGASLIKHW

O=C(CNC(=O)c1cc2cc(Cl)c(O)cc2oc1=O)N[C@@H]1C(=O)N2C(C(=O)O)=C(CSc3ccc4c(c3)C(=O)OC43c4ccc(O)cc4Oc4cc(O)ccc43)CS[C@H]12 [CCF2]
pixel intensity, coumarin emission filter (RTEM β-lactamase [1]; blue cell (transfected)): 98 and 70 and 76 and 56
pixel intensity, Fluorescein emission filter (RTEM β-lactamase [1]; blue cell (transfected), 515 EFLP filter): 112 and 113 and 92 and 67
pixel intensity, coumarin emission filter (RTEM β-lactamase [1]; green cell (control)): 9 and 7
reduction of fluorescence at 515 nm upon β-lactam cleavage (β-lactamase): 3.5 fold
increase of fluorescence emission from the donor moiety upon β-lactam cleavage (β-lactamase; emission 448 nm): 25 fold
pixel intensity, coumarin emission filter (RTEM β-lactamase [2]; COS-7, blue cell (transfected)): 22 and 27 and 34 and 31
pixel intensity, Fluorescein emission filter (RTEM β-lactamase [2]; COS-7, blue cell (transfected), 515 EFLP filter): 33 and 20 and 23 and 31
pixel intensity, coumarin emission filter (RTEM β-lactamase [2]; COS-7, green cell (control)): 4 and 5 and 3

CCCCCCCCCCCCCC(=O)O[C@@H]1[C@@H](C)[C@@]2(O)[C@@H](C=C(CO)C[C@]3(O)C(=O)C(C)=C[C@@H]23)[C@@H]2C(C)(C)[C@]12OC(C)=O [PMA, phorbol myristate acetate]
effect on fluorescence emission from the cell sample (NFAT promoter; 0 to 30 nM with 1 μM ionomycin, 90 minutes after stimulation): increased fluorescence emission
concentration preferable for enhancing detection of expression of a reporter gene (NFAT promoter; with 1 μM ionomycin, 90 minutes after stimulation): approximately 3 nM

C[C@H]1c2cccc(O)c2C(O)=C2C(=O)[C@]3(O)C(O)=C(C(N)=O)C(=O)[C@@H](N(C)C)[C@@H]3[C@@H](O)[C@@H]21 [doxycyclin]
Gα proteins produced upon induction of gene expression (Gα15 or Gα16 expression): Up to 10,000 Gα proteins/cell

C[C@H](CCC(=O)O)C[C@H](C)C[C@H](C)C(=O)/C=C(\O)[C@H](C)C[C@H](C)C/C=C/[C@@H](C)[C@@H](O)[C@@H](C)[C@@H](O)C[C@@H]1CC[C@@](C)([C@H]2CC[C@@](C)([C@@H](C)O)O2)O1 [ionomycin]
concentration raising intracellular calcium to just below the threshold level for activation of the calcium-responsive promoter (NFAT promoter; with PMA at 3 nM, emission ratio 450/530, about 90 minutes after stimulation): approximately 0.3 μM
